Here are results for four compounds from patent publication US20080293700A1, “Compositions and Methods Relating to Novel Compounds and Targets Thereof” (priority 2004, published 2008).

Read-outs that look alike come from different tables or passages of the source.

The target in test [1] is T1, ATP hydrolytic activity of sub-mitochondrial particles (SMPs), mitochondrial F1Fo-ATPase (Bos taurus, UniProt P13621).
T1 construct: from tissue; host or cells: sub-mitochondrial particles (SMPs)
As to the kind of experiment: NADH-coupled kinetics assay of ATP hydrolysis by sub-mitochondrial particles. Particulars: for Ki: non-competitive (mixed) model; for Km / Vmax: three-dimensional fit. The class given is biochemical, bovine. How it is done: The mechanism of inhibition for ATP hydrolysis induced by Bz-423 and derivatives of Bz-423 was assayed using an NADH-coupled assay. The ATP hydrolytic activity of the sub-mitochondrial particles (hereinafter SMPs) was measured by coupling the production of ADP to the oxidation of NADH via the pyruvate kinase and lactate dehydrogenase reaction. Briefly, ATP hydrolysis SMPs (0.8 mg; 7.14 μg/well) were added to hydrolysis buffer (100 mM Tris-HCl, pH 8.0 at 25° C., 4 mM MgCl2, […], 0.2 mM EDTA) and vortexed. 125 μL of this suspension was added to each well of a 96-well plate containing 50× drug or DMSO vehicle control (1% DMSO, final). The 96-well plate was then placed at 30° C. in a Molecular Devices Versamax tunable microplate reader and allowed to incubate for 5 min. During this 5 min, a substrate-coupling mixture was prepared (containing X mM ATP, 0.2 mM NADH, 1 mM phosphoenolpyruvate (PEP), 2 U/mL pyruvate kinase (PK), and 2 U/mL lactate dehydrogenase (LDH) in hydrolysis buffer). The rate of hydrolysis was assayed over a range of ATP concentrations (0.1-4.0 mM) at each [Bz]. 125 μL of the substrate-coupling mixture was added to each well, and the rate of NADH oxidation was monitored for 10 min at 340 nm, 30° C. The measured decrease in absorbance over time (in OD/min) was converted to μmol ATP hydrolyzed/min/mg SMP (ε=6220). The velocity data was plotted versus [ATP] for each concentration of [Bz] (e.g., 1-8 μM) (see, e.g., FIG. 1) and then fit to the Michaelis-Menten equation:
m1*m0/(1+m0/m2) • where m1=Vmax/Km and m2=Km The apparent kinetic parameters for each [Bz] were obtained from these curve fits to generate secondary plots of [Bz] versus Vmax, [Bz] versus Km, and [Bz] versus Vmax/Km (see, e.g., FIG. 2). The o-tert-Butyl derivative, shown below,
To obtain Ki values and confirm that an uncompetitive model of inhibition was the best fit for the data, three-dimensional fits of the velocity, [ATP], and [Bz] were performed to solve for Vmax, Km, Ki, and Ki* [where Ki indicates Bz binding to the ATPase with the third catalytic site empty (mixed-type inhibition only), and Ki* indicates binding when all three sites have substrate bound (uncompetitive and mixed-type inhibition)]. The following equations were used:
Vo=Vmax[S]/((1+[I]/Ki)Km+[S])
Vo=Vmax[S]/((1+[I]/Ki*) [S]+Km)
Vo=Vmax[S]/((1+[I]/Ki)Km+(1+[I]Ki*)[S])

Another test concerns F1Fo-ATPase. Particulars: cited from earlier work.
Where [2] appears, read: binding with third catalytic site empty.
The mark [3] stands for this setting: non-competitive (mixed) inhibition model.

As a reminder, the Ki is the equilibrium dissociation constant of an inhibitor or competing ligand from its target. Usually Km stands for the substrate concentration at which the rate is half of its maximum. `CN1C(=O)C(Cc2ccc3ccccc3c2)N=C(c2ccc(O)cc2)c2cc(Cl)ccc21` (centres unmarked) [Bz-423]: in test [1], the “mechanism of inhibition of ATP hydrolysis” value is given as “uncompetitive”. For the same compound, the Ki in test [1] (binding when all three sites have substrate bound, read-out: Ki*) is 18.9 ± 6.3 µM; in test [1] (setting [2]), “no fit”. The Km amounted to 400 ± 100 µM in test [1] (competitive inhibition model) and 680 ± 100 µM in test [1] (uncompetitive inhibition model). Also, the Vmax was 2.62 ± 0.9 in test [1] (competitive inhibition model), 3.37 ± 1.4 in test [1] (setting [3]) and 3.34 ± 1.3 in test [1] (uncompetitive inhibition model).
With `COC[C@@H](C[C@H]1O[C@@](O)([C@H](O)[C@@H]2C[C@H](OC)[C@@H](O)CC/C=C(C)/C=C/[C@@H](O[C@@H]3O[C@@H](C)[C@H](OC)[C@@H](O)[C@@H]3O)[C@H](C)/C=C(C)/C=C(C)/C=C(\C)C(=O)O2)[C@H](C)[C@@H](O)[C@H]1C)OC1C[C@](C)(O)[C@@H](O[C@H]2C[C@@H](OC)[C@H](O)[C@@H](C)O2)[C@H](C)O1` (some centres unmarked) [apoptolidin], the “mode of inhibition of the F1Fo-ATPase” value with F1Fo-ATPase is “non-competitive”.
On to `CN1C(=O)C(Cc2ccc(OC(C)(C)C)cc2)N=C(c2ccc(O)cc2)c2cc(Cl)ccc21` (centres unmarked) [o-tert-Butyl], for which the “mechanism of inhibition of ATP hydrolysis” value in test [1] is listed as “uncompetitive”. The Ki result in test [1] (setting [2]) is “no fit”. Moreover, the “effect on apparent Km” value in test [1] (secondary plot [Bz] versus Km, [Bz] 1-8 μM) is given as “decreased”. The “effect on apparent Vmax” value in test [1] (secondary plot [Bz] versus Vmax, [Bz] 1-8 μM) is given as “decreased”. Moreover, the Michaelis-Menten constant (Km) in test [1] (competitive inhibition model) came out at 250 ± 20 µM; in test [1] (uncompetitive inhibition model), 390 ± 300 µM. The values for the Vmax in test [1] (competitive inhibition model), in test [1] (setting [3]) and in test [1] (uncompetitive inhibition model) were 1.25 ± .01, 1.53 ± .03 and 1.53 ± 0.03, respectively.
Broadly, the IC50 is the concentration that inhibits the measured activity by half. For `CC[C@H]1/C=C/C=C/C[C@@H](C)[C@H](O)[C@@](C)(O)C(=O)[C@@H](C)[C@H](O)[C@@H](C)C(=O)[C@@H](C)[C@H](O)[C@@H](C)/C=C/C(=O)O[C@@H]2[C@H](C)[C@H](CC1)O[C@]1(CC[C@H](C)[C@H](C[C@@H](C)O)O1)[C@H]2C` [oligomycin], at F1Fo-ATPase, the IC50 is 0.01 µM and the “mode of inhibition of the F1Fo-ATPase” value is recorded as “non-competitive”.
